# Laboratory results: PubChem BioAssay AID1963835 (Molecular Pharmacology Branch, DTP, NCI, 2024)
# “And” between values parts separate entries of the source, which are not always exact repeats. Equal entries are not always repeated.
# Tested on: 699152-130-R-J1-PDC complex spheroid viability
# Assay: Anticancer human tumor 699152-130-R-J1-PDC patient-derived pancreatic carcinoma cell line growth inhibition [POLQ]
# Conditions: for viability, T/C: stronger effect = lower value
# Method: Multicellular complex tumor spheroid response to Polymerase (POL) inhibitors (novobiocin, ART-558, RP6685) in combination with a variety of drugs and investigational agents in selected tumor cell lines
# The POL inhibitors (novobiocin, ART-558, and RP6685) were evaluated both individually and in combination with standard of care and investigational anticancer small molecules within a complex spheroid model of solid tumors. . Complex spheroids include a stromal component modeled by human endothelial cells (HUVEC) and fibroblasts modeled by human mesenchymal stem cells (MSCs). The concentration ranges selected for each drug and investigational agent were based upon clinically achievable concentrations if the clinical Cmax of the agent was known.
# Compounds. The drugs and investigational agents: novobiocin (NSC847541), ART-558 (NSC835418), RP-6685 (NSC848927), peposertib (NSC802822), ceralasertib (NSC780249), elimusertib (NSC800525), camonsertib (NSC841442), AZD-1390 (NSC803789), olaparib (NSC753686), talazoparib (NSC767125), rucaparib (NSC756644), sotorasib (NSC818433), MRTX-1133 (NSC836407), SN-38 (NSC673596), topotecan (NSC609699), epotoside (NSC141540), doxorubicin (NSC123127), gemcitabine (NSC613327), 5-fluorouracil (NSC19893), paclitaxel (NSC125973), vemurafenib (NSC761431), MSA-2 (NSC828583), SN-011 (NSC837082), adavosertib (NSC754352), prexasertib (NSC758257), carboplatin (NSC241240) and oxaliplatin (NSC266046), were obtained from the National Cancer Institute (NCI) Developmental Therapeutics Program Chemical Repository (21). The FDA-approved anticancer drug set is available from the Developmental Therapeutics Program at https://dtp.cancer.gov/organization/dscb/obtaining/. […] The stock solutions were prepared in dimethyl sulfoxide (DMSO, Sigma-Aldrich, St. Louis, MO, cat. D2650), except for the platinum compounds which were prepared in saline (Quality Biological, Gaithersburg, MD, cat. 114-055-101), at 800-fold the tested concentration and stored at -70 degrees C prior to their use. All drugs and investigational agents were tested over a range starting from a high concentration at or near the clinical Cmax and decreasing in half-log increments. If the clinical Cmax for an agent had not been determined, the highest concentration tested was 10 microM, except for SN-38, which was tested at a high concentration of 1 microM.
# Cell Culture. All cells were maintained in an incubator at 37 degrees C and 5% CO2 with 95% humidity. The PDC lines were cultured according to standard operating procedures established by the NCI PDMR (https://pdmr.cancer.gov). Table 3 of the manuscript, lists the cell lines along with the number of the three cell types plated to form the mct-spheroids and media for tumor cell growth. After thawing, all PDC lines, except 997537-175-T-J1-PDC and 415267-285-R-J2-PDC, were cultured in Matrigel-coated flasks prepared with a working solution of 1X Ham's F-12 nutrient mix, without supplementation (Thermo Fisher Scientific, cat. 11765054), 100 U/mL penicillin-streptomycin (Thermo Fisher Scientific, cat. 15140122), and 2.5% Matrigel (Corning Inc., Corning, NY, cat. 354248) for the first three passages. The two PDC lines 997537-175-T-J1-PDC and 415267-285-R-J2-PDC were cultured on uncoated flasks. The 857933-349-R-J2-PDC line was cultured in 6C/Colon 1B media containing advanced DMEM/F-12 (Thermo Fisher Scientific, cat. 12634028), 10 mM HEPES (Thermo Fisher Scientific, cat. 15630080), 1X GlutaMAX supplement (Thermo Fisher Scientific, cat. 35050061), 0.1 mg/mL primocin (InvivoGen, San Diego, CA, cat. ant-pm-2), 10% defined fetal bovine serum, heat inactivated (HyClone Laboratories Inc., Logan, UT, cat. SH30070.03HI), 50% L-WRN conditioned media (ATCC, cat. CRL-3276), 1.25 mM N-Acetyl-L-cysteine (Sigma-Aldrich, cat. A9165), 10 mM nicotinamide (Sigma-Aldrich, cat. N0636), 1X B-27 supplement (Thermo Fisher Scientific, cat. 17504044), 1X N-2 supplement (Thermo Fisher Scientific, cat. […]
# [1] = curve of first compound, second compound 0.0316 µM
# [2] = curve of first compound, second compound 0.1 µM
# [3] = curve of first compound, second compound 0.316 µM
# [4] = curve of first compound, second compound 1 µM
# [5] = curve of first compound, second compound 3.16 µM
# [6] = curve of first compound, second compound 10 µM
# [7] = second compound 0.0316 µM, first compound 0.0316 µM
# [8] = second compound 0.0316 µM, first compound 0.1 µM
# [9] = second compound 0.1 µM, first compound 0.0316 µM
# [10] = second compound 0.1 µM, first compound 0.1 µM
# [11] = second compound 0.316 µM, first compound 0.0316 µM
# [12] = second compound 0.316 µM, first compound 0.1 µM
# [13] = second compound 1 µM, first compound 0.0316 µM
# [14] = second compound 1 µM, first compound 0.1 µM
# [15] = second compound 3.16 µM, first compound 0.0316 µM
# [16] = second compound 3.16 µM, first compound 0.1 µM
# [17] = second compound 10 µM, first compound 0.0316 µM
# [18] = second compound 10 µM, first compound 0.1 µM
# 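Also: spheroids exposed to agents for 7 days before viability reading.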
# 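For viability, T/C in this document: percent of DMSO vehicle control viability so 100% = vehicle and 0% = no viable signal.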
compound,measurement,setting,value
CC[C@@]1(O)C(=O)OCc2c1cc1n(c2=O)Cc2cc3c(CN(C)C)c(O)ccc3nc2-1 + Nc1ccc(C#CCN(C(=O)Cc2ncc(C(F)(F)F)cc2C(F)(F)F)c2ccc(F)cc2)nn1,IC50,[1],> 100 nM
same,IC50,[2],> 100 nM
same,IC50,[3],> 100 nM
same,IC50,[4],> 100 nM
same,IC50,[5],> 100 nM
same,IC50,[6],> 100 nM
same,"viability, T/C","second compound 0.0316 µM, first compound 0.000316 µM",109%
same,"viability, T/C","second compound 0.0316 µM, first compound 0.001 µM",106%
same,"viability, T/C","second compound 0.0316 µM, first compound 0.00316 µM",97.9%
same,"viability, T/C","second compound 0.0316 µM, first compound 0.01 µM",91.8%
same,"viability, T/C",[7],80.6%
same,"viability, T/C",[8],65.9%
same,"viability, T/C","second compound 0.1 µM, first compound 0.000316 µM",100%
same,"viability, T/C","second compound 0.1 µM, first compound 0.001 µM",108%
same,"viability, T/C","second compound 0.1 µM, first compound 0.00316 µM",95.3%
same,"viability, T/C","second compound 0.1 µM, first compound 0.01 µM",92.1%
same,"viability, T/C",[9],84.4%
same,"viability, T/C",[10],57.7%
same,"viability, T/C","second compound 0.316 µM, first compound 0.000316 µM",99.7%
same,"viability, T/C","second compound 0.316 µM, first compound 0.001 µM",105%
same,"viability, T/C","second compound 0.316 µM, first compound 0.00316 µM",102%
same,"viability, T/C","second compound 0.316 µM, first compound 0.01 µM",90%
same,"viability, T/C",[11],80.1%
same,"viability, T/C",[12],73.2%
same,"viability, T/C","second compound 1 µM, first compound 0.000316 µM",113%
same,"viability, T/C","second compound 1 µM, first compound 0.001 µM",97.8%
same,"viability, T/C","second compound 1 µM, first compound 0.00316 µM",109%
same,"viability, T/C","second compound 1 µM, first compound 0.01 µM",97%
same,"viability, T/C",[13],82.6%
same,"viability, T/C",[14],69.9%
same,"viability, T/C","second compound 3.16 µM, first compound 0.000316 µM",102%
same,"viability, T/C","second compound 3.16 µM, first compound 0.001 µM",105%
same,"viability, T/C","second compound 3.16 µM, first compound 0.00316 µM",95.8%
same,"viability, T/C","second compound 3.16 µM, first compound 0.01 µM",108%
same,"viability, T/C",[15],85.2%
same,"viability, T/C",[16],62.2%
same,"viability, T/C","second compound 10 µM, first compound 0.000316 µM",109%
same,"viability, T/C","second compound 10 µM, first compound 0.001 µM",119%
same,"viability, T/C","second compound 10 µM, first compound 0.00316 µM",123%
same,"viability, T/C","second compound 10 µM, first compound 0.01 µM",114%
same,"viability, T/C",[17],108%
same,"viability, T/C",[18],68%
Nc1ccn(C2OC(CO)C(O)C2(F)F)c(=O)n1 (stereo unspecified),"viability, T/C",compound 0.0316 µM,68.9% and 75.2% and 66%
same,"viability, T/C",compound 0.1 µM,63.8% and 57.4% and 54.5%
same,"viability, T/C",compound 0.316 µM,54.8% and 51.7% and 52.1%
same,"viability, T/C",compound 1 µM,49.3% and 52.1% and 41.2%
same,"viability, T/C",compound 3.16 µM,44.3% and 51.1% and 40.1%
same,"viability, T/C",compound 10 µM,39.6% and 44.7% and 36%
same,IC50,curve of compound,917 nM and 786 nM and 277 nM
CC1COCCN1c1cc(-c2ccnn2C)c2ccnc(-c3ccn[nH]3)c2n1 (stereo unspecified) + COC1C(OC(N)=O)C(O)C(Oc2ccc3c(O)c(NC(=O)c4ccc(O)c(CC=C(C)C)c4)c(=O)oc3c2C)OC1(C)C,IC50,[1],> 10000 nM
same,IC50,[2],> 10000 nM
same,IC50,[3],8540 nM
same,IC50,[4],> 10000 nM
same,IC50,[5],> 10000 nM
same,IC50,[6],> 10000 nM
same,"viability, T/C",[7],94.7%
same,"viability, T/C",[8],101%
same,"viability, T/C","second compound 0.0316 µM, first compound 0.316 µM",71.5%
same,"viability, T/C","second compound 0.0316 µM, first compound 1 µM",57.2%
same,"viability, T/C","second compound 0.0316 µM, first compound 3.16 µM",58.6%
same,"viability, T/C","second compound 0.0316 µM, first compound 10 µM",53.3%
same,"viability, T/C",[9],104%
same,"viability, T/C",[10],97.1%
same,"viability, T/C","second compound 0.1 µM, first compound 0.316 µM",71.1%
same,"viability, T/C","second compound 0.1 µM, first compound 1 µM",57.1%
same,"viability, T/C","second compound 0.1 µM, first compound 3.16 µM",57%
same,"viability, T/C","second compound 0.1 µM, first compound 10 µM",47%
same,"viability, T/C",[11],104%
same,"viability, T/C",[12],99.9%
same,"viability, T/C","second compound 0.316 µM, first compound 0.316 µM",66%
same,"viability, T/C","second compound 0.316 µM, first compound 1 µM",56.4%
same,"viability, T/C","second compound 0.316 µM, first compound 3.16 µM",63.1%
same,"viability, T/C","second compound 0.316 µM, first compound 10 µM",47.5%
same,"viability, T/C",[13],99.2%
same,"viability, T/C",[14],93.3%
same,"viability, T/C","second compound 1 µM, first compound 0.316 µM",67.3%
same,"viability, T/C","second compound 1 µM, first compound 1 µM",64%
same,"viability, T/C","second compound 1 µM, first compound 3.16 µM",55.5%
same,"viability, T/C","second compound 1 µM, first compound 10 µM",51.5%
same,"viability, T/C",[15],96.3%
same,"viability, T/C",[16],85.3%
same,"viability, T/C","second compound 3.16 µM, first compound 0.316 µM",76.8%
same,"viability, T/C","second compound 3.16 µM, first compound 1 µM",56.1%
same,"viability, T/C","second compound 3.16 µM, first compound 3.16 µM",56.1%
same,"viability, T/C","second compound 3.16 µM, first compound 10 µM",52.6%
same,"viability, T/C",[17],102%
same,"viability, T/C",[18],80.8%
same,"viability, T/C","second compound 10 µM, first compound 0.316 µM",65.6%
same,"viability, T/C","second compound 10 µM, first compound 1 µM",56.5%
same,"viability, T/C","second compound 10 µM, first compound 3.16 µM",58.3%
same,"viability, T/C","second compound 10 µM, first compound 10 µM",50%
